From publication PMC3914206

Experiments:
Assay in all cases: KiNativ chemical proteomics profiling in HeLa and PC3 cell lysates
Format in all cases: binding
[1] = molecular target: T1, selected panels of kinases in HeLa and PC3 cell lysates (Homo sapiens, UniProt O00418); conditions: 10 uM, peptide YIkYNSNSGFVR, labeling site Protein Kinase Domain
T1 construct: endogenous in cells; host or cells: HeLa and PC3 cell lysates

[2] = molecular target: T2, selected panels of kinases in HeLa and PC3 cell lysates (Homo sapiens, UniProt Q9Y572); conditions: 10 uM; RIPK3; peptide DLk[…]; proteome HEL; labeling site Lys2
T2 construct: endogenous in cells; host or cells: HeLa and PC3 cell lysates

[3] = molecular target: T3, selected panels of kinases in HeLa and PC3 cell lysates (Homo sapiens, UniProt P49841); conditions: 10 uM; proteome PC3; peptide DIk[…]; labeling site Lys2
T3 construct: endogenous in cells; host or cells: HeLa and PC3 cell lysates

[4] = molecular target: T4, selected panels of kinases in HeLa and PC3 cell lysates (Homo sapiens, UniProt Q9NWZ3); conditions: 10 uM, peptide DIk[…], labeling site Lys2
T4 construct: endogenous in cells; host or cells: HeLa and PC3 cell lysates
T4 sequence (Q9NWZ3 1-460): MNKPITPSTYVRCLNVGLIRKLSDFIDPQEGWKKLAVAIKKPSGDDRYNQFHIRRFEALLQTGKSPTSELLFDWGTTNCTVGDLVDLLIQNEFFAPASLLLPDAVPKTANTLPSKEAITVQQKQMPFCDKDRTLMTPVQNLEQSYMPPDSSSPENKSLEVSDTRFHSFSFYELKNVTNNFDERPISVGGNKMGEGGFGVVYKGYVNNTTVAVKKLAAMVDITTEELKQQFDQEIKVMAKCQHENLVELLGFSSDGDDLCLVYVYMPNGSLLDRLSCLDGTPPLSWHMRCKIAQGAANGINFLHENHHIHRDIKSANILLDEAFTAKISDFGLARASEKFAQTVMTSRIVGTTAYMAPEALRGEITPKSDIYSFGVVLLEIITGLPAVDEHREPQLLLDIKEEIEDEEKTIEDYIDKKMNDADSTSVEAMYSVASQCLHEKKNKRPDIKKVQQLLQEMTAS

[5] = molecular target: T5, selected panels of kinases in HeLa and PC3 cell lysates (Homo sapiens, UniProt P19525); conditions: 10 uM, PKR, peptide DLk[…], labeling site Lys2
T5 construct: endogenous in cells; host or cells: HeLa and PC3 cell lysates
T5 sequence (P19525 whole entry): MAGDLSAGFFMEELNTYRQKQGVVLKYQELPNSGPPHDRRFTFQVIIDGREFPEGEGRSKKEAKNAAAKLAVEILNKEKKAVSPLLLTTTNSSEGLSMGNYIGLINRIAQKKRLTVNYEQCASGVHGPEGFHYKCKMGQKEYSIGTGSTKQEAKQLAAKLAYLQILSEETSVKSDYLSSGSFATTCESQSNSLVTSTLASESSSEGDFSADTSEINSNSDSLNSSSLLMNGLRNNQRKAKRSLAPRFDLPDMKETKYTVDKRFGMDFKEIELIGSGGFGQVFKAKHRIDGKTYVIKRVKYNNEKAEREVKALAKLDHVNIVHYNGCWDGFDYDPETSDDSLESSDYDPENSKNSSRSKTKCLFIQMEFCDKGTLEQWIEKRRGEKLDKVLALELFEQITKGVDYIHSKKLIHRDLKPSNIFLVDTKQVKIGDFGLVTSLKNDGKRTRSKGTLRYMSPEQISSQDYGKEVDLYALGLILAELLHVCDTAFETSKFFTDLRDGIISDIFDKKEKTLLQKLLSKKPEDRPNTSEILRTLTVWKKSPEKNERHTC

[6] = molecular target: T6, selected panels of kinases in HeLa and PC3 cell lysates (Homo sapiens, UniProt Q16512); conditions: 10 uM; PKN1; peptide GHFGk[…]; proteome HEL; labeling site Lys1
T6 construct: endogenous in cells; host or cells: HeLa and PC3 cell lysates

[7] = molecular target: T7, selected panels of kinases in HeLa and PC3 cell lysates (Homo sapiens, UniProt Q9UBS0); conditions: 10 uM; p70S6Kb; peptide DLk[…]; proteome HEL; labeling site Lys2
T7 construct: endogenous in cells; host or cells: HeLa and PC3 cell lysates

[8] = molecular target: T8, selected panels of kinases in HeLa and PC3 cell lysates (Homo sapiens, UniProt P21709); conditions: 10 uM; proteome PC3; peptide […]kIPIR; labeling site Activation Loop
T8 construct: endogenous in cells; host or cells: HeLa and PC3 cell lysates

[9] = molecular target: T9, selected panels of kinases in HeLa and PC3 cell lysates (Homo sapiens, UniProt Q13535); conditions: 10 uM, peptide FYIMMCkPK, labeling site ATP
T9 construct: endogenous in cells; host or cells: HeLa and PC3 cell lysates
T9 sequence (Q13535 whole entry): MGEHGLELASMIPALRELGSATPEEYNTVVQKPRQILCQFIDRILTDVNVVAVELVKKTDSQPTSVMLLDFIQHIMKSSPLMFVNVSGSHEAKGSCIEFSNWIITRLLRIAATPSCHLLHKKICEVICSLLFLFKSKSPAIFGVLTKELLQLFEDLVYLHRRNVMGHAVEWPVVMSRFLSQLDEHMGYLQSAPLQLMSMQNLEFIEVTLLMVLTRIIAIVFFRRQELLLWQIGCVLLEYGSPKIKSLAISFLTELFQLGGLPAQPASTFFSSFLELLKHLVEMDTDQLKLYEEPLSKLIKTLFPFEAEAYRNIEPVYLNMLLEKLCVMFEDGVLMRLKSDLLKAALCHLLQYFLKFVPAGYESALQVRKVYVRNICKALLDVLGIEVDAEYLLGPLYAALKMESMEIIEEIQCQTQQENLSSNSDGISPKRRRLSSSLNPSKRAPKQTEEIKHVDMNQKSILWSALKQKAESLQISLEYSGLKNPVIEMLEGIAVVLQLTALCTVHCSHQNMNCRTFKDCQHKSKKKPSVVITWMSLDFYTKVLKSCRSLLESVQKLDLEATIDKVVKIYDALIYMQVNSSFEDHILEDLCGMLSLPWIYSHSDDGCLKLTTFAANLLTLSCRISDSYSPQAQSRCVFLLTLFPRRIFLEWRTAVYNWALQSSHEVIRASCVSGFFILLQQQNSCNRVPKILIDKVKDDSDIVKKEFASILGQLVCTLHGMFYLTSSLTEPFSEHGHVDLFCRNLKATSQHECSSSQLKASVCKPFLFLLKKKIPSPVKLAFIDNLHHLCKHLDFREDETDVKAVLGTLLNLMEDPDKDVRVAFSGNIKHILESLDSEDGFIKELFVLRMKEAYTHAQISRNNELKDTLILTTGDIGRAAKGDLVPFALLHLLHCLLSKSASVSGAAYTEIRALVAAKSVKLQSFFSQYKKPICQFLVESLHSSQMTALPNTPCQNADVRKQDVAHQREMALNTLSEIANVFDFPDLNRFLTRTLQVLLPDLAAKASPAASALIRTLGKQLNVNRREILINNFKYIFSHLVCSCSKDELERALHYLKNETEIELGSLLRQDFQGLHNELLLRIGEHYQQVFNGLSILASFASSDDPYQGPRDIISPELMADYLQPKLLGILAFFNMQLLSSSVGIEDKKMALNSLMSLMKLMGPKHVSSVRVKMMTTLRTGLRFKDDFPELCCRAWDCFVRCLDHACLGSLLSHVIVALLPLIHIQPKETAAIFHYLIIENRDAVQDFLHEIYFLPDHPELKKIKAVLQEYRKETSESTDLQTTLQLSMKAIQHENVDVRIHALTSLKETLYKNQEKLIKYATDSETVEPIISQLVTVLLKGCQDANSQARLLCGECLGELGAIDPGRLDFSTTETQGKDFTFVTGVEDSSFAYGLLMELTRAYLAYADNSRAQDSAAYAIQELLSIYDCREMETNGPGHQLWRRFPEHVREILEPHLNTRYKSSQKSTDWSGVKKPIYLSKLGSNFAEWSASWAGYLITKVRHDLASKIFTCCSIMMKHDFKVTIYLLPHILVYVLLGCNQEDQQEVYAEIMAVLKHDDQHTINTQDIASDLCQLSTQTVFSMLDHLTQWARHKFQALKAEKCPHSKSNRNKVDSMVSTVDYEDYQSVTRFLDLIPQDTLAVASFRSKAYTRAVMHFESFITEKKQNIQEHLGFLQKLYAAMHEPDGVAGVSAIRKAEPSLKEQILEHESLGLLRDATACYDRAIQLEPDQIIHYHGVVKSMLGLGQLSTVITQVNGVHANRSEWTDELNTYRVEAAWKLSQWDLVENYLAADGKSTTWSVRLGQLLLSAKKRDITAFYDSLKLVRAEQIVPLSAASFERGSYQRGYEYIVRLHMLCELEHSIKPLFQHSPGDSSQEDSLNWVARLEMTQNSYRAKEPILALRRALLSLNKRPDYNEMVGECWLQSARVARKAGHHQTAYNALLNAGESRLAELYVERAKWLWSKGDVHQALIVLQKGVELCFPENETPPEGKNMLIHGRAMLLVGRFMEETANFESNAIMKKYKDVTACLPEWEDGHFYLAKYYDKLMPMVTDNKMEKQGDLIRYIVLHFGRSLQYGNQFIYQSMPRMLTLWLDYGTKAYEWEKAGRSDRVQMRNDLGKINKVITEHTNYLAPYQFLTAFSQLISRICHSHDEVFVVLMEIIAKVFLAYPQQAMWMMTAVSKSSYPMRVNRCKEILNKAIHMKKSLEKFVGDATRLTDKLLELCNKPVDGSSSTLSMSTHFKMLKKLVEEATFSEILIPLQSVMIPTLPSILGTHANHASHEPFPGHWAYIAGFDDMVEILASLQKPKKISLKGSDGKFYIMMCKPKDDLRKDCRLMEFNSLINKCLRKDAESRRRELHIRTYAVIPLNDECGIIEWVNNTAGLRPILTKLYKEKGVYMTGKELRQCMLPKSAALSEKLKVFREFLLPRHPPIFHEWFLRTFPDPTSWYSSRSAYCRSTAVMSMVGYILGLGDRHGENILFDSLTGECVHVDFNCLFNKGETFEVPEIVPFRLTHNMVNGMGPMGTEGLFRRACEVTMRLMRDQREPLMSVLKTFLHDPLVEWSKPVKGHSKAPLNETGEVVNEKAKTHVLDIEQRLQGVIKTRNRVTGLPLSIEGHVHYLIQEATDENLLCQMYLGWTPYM

[10] = molecular target: T10, selected panels of kinases in HeLa and PC3 cell lysates (Homo sapiens, UniProt Q96GX5); conditions: 10 uM; proteome HEL; peptide LYAVkVVK; labeling site Lys1
T10 construct: endogenous in cells; host or cells: HeLa and PC3 cell lysates

[11] = molecular target: T11, selected panels of kinases in HeLa and PC3 cell lysates (Homo sapiens, UniProt P53350); conditions: 10 uM; PLK1; peptide DLk[…]; proteome HEL; labeling site Lys2
T11 construct: endogenous in cells; host or cells: HeLa and PC3 cell lysates

[12] = molecular target: T12, selected panels of kinases in HeLa and PC3 cell lysates (Homo sapiens, UniProt Q13555); conditions: 10 uM, peptide TSTQEYAAkIINTK, labeling site Lys1
T12 construct: endogenous in cells; host or cells: HeLa and PC3 cell lysates
T12 sequence (Q13555 whole entry): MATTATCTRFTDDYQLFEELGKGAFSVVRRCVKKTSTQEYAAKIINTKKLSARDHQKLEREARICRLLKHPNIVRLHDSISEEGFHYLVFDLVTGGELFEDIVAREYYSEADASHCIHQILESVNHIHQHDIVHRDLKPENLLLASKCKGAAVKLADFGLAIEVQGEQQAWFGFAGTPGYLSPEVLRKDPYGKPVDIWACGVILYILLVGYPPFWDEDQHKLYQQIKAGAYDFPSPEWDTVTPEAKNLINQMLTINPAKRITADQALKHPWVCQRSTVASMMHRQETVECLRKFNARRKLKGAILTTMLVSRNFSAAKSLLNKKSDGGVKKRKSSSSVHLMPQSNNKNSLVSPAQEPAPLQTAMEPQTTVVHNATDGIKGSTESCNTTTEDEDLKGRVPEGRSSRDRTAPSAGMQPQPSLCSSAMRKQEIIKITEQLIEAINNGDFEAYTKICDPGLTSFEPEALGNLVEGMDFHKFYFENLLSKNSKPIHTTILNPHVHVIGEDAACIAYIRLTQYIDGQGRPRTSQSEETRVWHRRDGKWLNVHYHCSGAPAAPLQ

[13] = molecular target: T13, selected panels of kinases in HeLa and PC3 cell lysates (Homo sapiens, UniProt P12931); conditions: 10 uM; SRC; peptide VAIk[…]; proteome PC3; labeling site Lys1
T13 construct: endogenous in cells; host or cells: HeLa and PC3 cell lysates

[14] = molecular target: T14, selected panels of kinases in HeLa and PC3 cell lysates (Homo sapiens, UniProt P48736); conditions: 10 uM; PIK3CG; peptide KkPLWLEFK; proteome HEL; labeling site ATP
T14 construct: endogenous in cells; host or cells: HeLa and PC3 cell lysates

[15] = molecular target: T15, selected panels of kinases in HeLa and PC3 cell lysates (Homo sapiens, UniProt Q12851); conditions: 10 uM; proteome HEL; peptide […]kIVK; labeling site Lys1
T15 construct: endogenous in cells; host or cells: HeLa and PC3 cell lysates

[16] = molecular target: T16, selected panels of kinases in HeLa and PC3 cell lysates (Homo sapiens, UniProt Q9Y2H1); conditions: 10 uM; proteome PC3; peptide DTGHIYAMkILR; labeling site Lys1
T16 construct: endogenous in cells; host or cells: HeLa and PC3 cell lysates
T16 sequence (Q9Y2H1 whole entry): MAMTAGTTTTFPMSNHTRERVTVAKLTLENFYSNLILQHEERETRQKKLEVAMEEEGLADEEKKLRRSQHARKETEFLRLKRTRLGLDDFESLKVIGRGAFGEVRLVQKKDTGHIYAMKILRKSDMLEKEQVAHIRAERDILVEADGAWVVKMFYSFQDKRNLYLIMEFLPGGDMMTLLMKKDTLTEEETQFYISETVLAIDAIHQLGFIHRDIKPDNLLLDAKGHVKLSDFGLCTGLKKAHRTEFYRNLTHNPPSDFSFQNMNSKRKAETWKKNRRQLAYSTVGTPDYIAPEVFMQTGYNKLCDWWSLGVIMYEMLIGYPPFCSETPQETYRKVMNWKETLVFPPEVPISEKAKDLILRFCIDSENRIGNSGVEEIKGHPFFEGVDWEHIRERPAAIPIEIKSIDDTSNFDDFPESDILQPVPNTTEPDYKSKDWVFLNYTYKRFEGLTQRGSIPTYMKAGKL

[17] = molecular target: T17, selected panels of kinases in HeLa and PC3 cell lysates (Homo sapiens, UniProt P42338); conditions: 10 uM; PIK3CB; peptide […]k[…]; proteome PC3; labeling site ATP
T17 construct: endogenous in cells; host or cells: HeLa and PC3 cell lysates

T1 sequence (O00418 whole entry, the tested form may be a part): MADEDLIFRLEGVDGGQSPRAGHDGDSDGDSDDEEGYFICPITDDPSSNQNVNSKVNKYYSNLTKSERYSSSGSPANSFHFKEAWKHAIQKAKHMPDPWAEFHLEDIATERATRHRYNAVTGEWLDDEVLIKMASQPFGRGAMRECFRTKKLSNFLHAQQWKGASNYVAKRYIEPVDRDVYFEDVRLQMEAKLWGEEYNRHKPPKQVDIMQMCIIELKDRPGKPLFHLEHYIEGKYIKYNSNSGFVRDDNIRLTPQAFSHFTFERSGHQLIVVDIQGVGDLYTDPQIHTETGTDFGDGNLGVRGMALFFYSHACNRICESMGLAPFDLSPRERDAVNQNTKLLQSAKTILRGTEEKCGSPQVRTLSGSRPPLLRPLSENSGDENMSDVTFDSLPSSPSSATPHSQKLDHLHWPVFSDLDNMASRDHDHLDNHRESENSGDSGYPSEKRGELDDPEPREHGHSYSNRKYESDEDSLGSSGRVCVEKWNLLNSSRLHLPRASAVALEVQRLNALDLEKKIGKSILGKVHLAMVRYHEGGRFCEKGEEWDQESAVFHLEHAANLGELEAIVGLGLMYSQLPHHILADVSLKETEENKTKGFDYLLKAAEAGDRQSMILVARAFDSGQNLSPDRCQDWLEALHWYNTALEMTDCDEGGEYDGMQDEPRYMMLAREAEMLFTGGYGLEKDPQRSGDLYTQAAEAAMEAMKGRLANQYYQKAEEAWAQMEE

SMILES	% Inhibiton, eEF2K ([1]; proteome HEL) [%]	% Inhibiton, eEF2K ([1]; proteome PC3) [%]	% Inhibition RIPK3 [2] [%]	% Inhibiton, GSK3B [3] [%]	% Inhibiton, IRAK4 ([4]; proteome HEL) [%]	% Inhibiton, IRAK4 ([4]; proteome PC3) [%]	% Inhibition PKR ([5]; proteome HEL) [%]	% Inhibition PKR ([5]; proteome PC3) [%]	% Inhibition PKN1 [6] [%]	% Inhibition p70S6Kb [7] [%]	% Inhibiton, EphA1 [8] [%]	% Inhibiton, ATR ([9]; proteome HEL) [%]	% Inhibiton, ATR ([9]; proteome PC3) [%]	% Inhibiton, MASTL [10] [%]	% Inhibition PLK1 [11] [%]	% Inhibiton, CaMK2g ([12]; proteome HEL) [%]	% Inhibiton, CaMK2g ([12]; proteome PC3) [%]	% Inhibition SRC [13] [%]	% Inhibition PIK3CG [14] [%]	% Inhibiton, GCK [15] [%]	further results
COc1cc(C(=O)N2CCC(N3CCN(C)CC3)CC2)ccc1Nc1ncc2c(n1)N(C1CCCC1)c1ccccc1C(=O)N2C [Compound 25, 11-cyclopentyl-2-((2-methoxy-4-(4-(4-methylpiperazin-1-yl)piperidine-1-carbonyl)phenyl)amino)-5-methyl-5H-benzo[e]pyrimido[5,4-b][1,4]diazepin-6(11H)-one]	8.7	-9.1	-1.3	4.6	13.4	-7.4	6.1	-3.4	-2.7	8.4	-1.8	8.5	21.0	14.5	9.6	8.7	7.8	-3.4	11.8	-2.3	% Inhibiton, NDR2 [16]: -0.235%; % Inhibition PIK3CB [17]: 0.8%
CCOc1cc(C(=O)N2CCC(N3CCN(C)CC3)CC2)ccc1Nc1ncc2c(n1)N(C1CCCC1)c1ccccc1C(=O)N2C [Compound 26]	1.2	1.9	-2.4	-3	-2.3	1.4	-0.3	-3.3	15.3	-21.4	-0.1	-9.8	-4.3	5.9	23.9	7.3	-4.7	13.8	45.3	6.8	% Inhibiton, NDR2 [16]: 8.2%; % Inhibition PIK3CB [17]: -124.1%
